Reference: PubChem BioAssay AID2060491 (Molecular Pharmacology Branch, DTP, NCI, 2025)

Tested on: 857933-349-R-J2-PDC complex spheroids, viability
Test: Anticancer human tumor 857933-349-R-J2-PDC patient-derived colon adenocarcinoma cell line growth inhibition [GQUAD]
Details: for IC50: curve of first compound; for viability, T/C: stronger effect = lower value
From the text: DNA G-quadruplex Stabilizer Agents in Combinations in Complex Spheroids
A high-throughput screen of multi-cell type tumor spheroids was designed to identify active combinations of DNA G-quadruplex stabilizer agents and targeted small molecules. Complex spheroids include a stromal component modeled by human endothelial cells (HUVEC) and fibroblasts modeled by human mesenchymal stem cells (MSCs). The concentration ranges selected for each drug and investigational agent were based upon clinically achievable concentrations if the clinical Cmax of the agent was known.
Compounds. The drugs and investigational agents: pidnarulex (CX-5461; NSC782164), APTO-253 (NSC789042), BRACO-19 (NSC847499), peposertib (NSC802822), ceralasertib (NSC780249), elimusertib (NSC800525), camonsertib (NSC841442), AZD-1390 (NSC803789), olaparib (NSC753686), talazoparib (NSC767125), ART-558 (NSC835418), sotorasib (NSC818433), MRTX-1133 (NSC836407), SN-38 (NSC673596), topotecan (NSC609699), etoposide (NSC141540), doxorubicin (NSC123127), gemcitabine (NSC613327), 5-fluorouracil (NSC19893), paclitaxel (NSC125973), vemurafenib (NSC761431), panobinostat (NSC761190), R-306465 (JNJ-16241199; NSC773264), adavosertib (NSC754352), TP-3654 (NSC805149), carboplatin (NSC241240), KSQ-4279 (NSC840948), and staurosporine (NSC755774) were obtained from the National Cancer Institute (NCI) Developmental Therapeutics Program Chemical Repository (34). The FDA-approved anticancer drug set is available from the NCI Developmental Therapeutics Program. […] The stock solutions were prepared in dimethyl sulfoxide (DMSO, Sigma-Aldrich, St. Louis, MO, cat. D2650) at 800-fold the tested concentration and stored at -70 degrees C prior to their use. All drugs and investigational agents were tested over a range starting from a high concentration at or near the clinical Cmax and decreasing in half-log increments. If the clinical Cmax for an agent had not been determined, the highest concentration tested was 10 microM.
2.3 Cell Culture. All cells were maintained in an incubator at 37 degrees C and 5% CO2 with 95% humidity. The PDC lines were cultured according to standard operating procedures established by the NCI PDMR. All PDCs were thawed and cultured in Matrigel-coated flasks prepared with a working solution of 1X Ham's F-12 nutrient mix, without supplementation (Invitrogen, cat. 11765054), 100 U/mL penicillin-streptomycin (Invitrogen, cat. 15140122), and 2.5% Matrigel (Corning Inc., cat. 354248) for the first three passages. The 857933-349-R-J2-PDC line was cultured in 6C/Colon 1B media, which includes advanced DMEM/F-12 (Thermo Fisher Scientific, cat. 12634028), 10 mM HEPES (Thermo Fisher Scientific, cat. 15630080), 1X GlutaMAX supplement (Thermo Fisher Scientific, cat. 35050061), 0.1 mg/mL primocin (InvivoGen, cat. ant-pm-2), 10% defined fetal bovine serum, heat inactivated (HyClone Laboratories Inc., cat. SH30070.03HI), 50% L-WRN conditioned media (ATCC, cat. CRL-3276), 1.25 mM N-Acetyl-L-cysteine (Sigma-Aldrich, cat. A9165), 10 mM nicotinamide (Sigma-Aldrich, cat. N0636), 1X B-27 supplement (Thermo Fisher Scientific, cat. 17504044), 1X N-2 supplement (Thermo Fisher Scientific, cat. 17502048), 10 microM Y-27632 dihydrochloride (Tocris Bioscience, cat. 1254), and 50 ng/mL human EGF recombinant protein (Thermo Fisher Scientific, cat. PHG0311). The 485176-168-R4-J1-PDC line was cultured in Panc media, which includes all 6C/Colon 1B media components plus 100 ng/mL human FGF-10 (Thermo Fisher Scientific, cat. 100-26), 500 nM SB-431542 (Selleckchem, cat. S1067), and gastrin (Tocris, cat. 3006).
[…]

[1] = second compound 0.0316 µM, first compound 0.000999 µM
[2] = second compound 0.0316 µM, first compound 0.00316 µM
[3] = second compound 0.0316 µM, first compound 0.00999 µM
[4] = second compound 0.0316 µM, first compound 0.0316 µM
[5] = second compound 0.0316 µM, first compound 0.0999 µM
[6] = second compound 0.0316 µM, first compound 0.316 µM
[7] = second compound 0.1 µM, first compound 0.000999 µM
[8] = second compound 0.1 µM, first compound 0.00316 µM
[9] = second compound 0.1 µM, first compound 0.00999 µM
[10] = second compound 0.1 µM, first compound 0.0316 µM
[11] = second compound 0.1 µM, first compound 0.0999 µM
[12] = second compound 0.1 µM, first compound 0.316 µM
[13] = second compound 0.316 µM, first compound 0.000999 µM
[14] = second compound 0.316 µM, first compound 0.00316 µM
[15] = second compound 0.316 µM, first compound 0.00999 µM
[16] = second compound 0.316 µM, first compound 0.0316 µM
[17] = second compound 0.316 µM, first compound 0.0999 µM
[18] = second compound 0.316 µM, first compound 0.316 µM
[19] = second compound 1 µM, first compound 0.000999 µM
[20] = second compound 1 µM, first compound 0.00316 µM
[21] = second compound 1 µM, first compound 0.00999 µM
[22] = second compound 1 µM, first compound 0.0316 µM
[23] = second compound 1 µM, first compound 0.0999 µM
[24] = second compound 1 µM, first compound 0.316 µM
[25] = second compound 3.16 µM, first compound 0.000999 µM
[26] = second compound 3.16 µM, first compound 0.00316 µM
[27] = second compound 3.16 µM, first compound 0.00999 µM
[28] = second compound 3.16 µM, first compound 0.0316 µM
[29] = second compound 3.16 µM, first compound 0.0999 µM
[30] = second compound 3.16 µM, first compound 0.316 µM
[31] = second compound 10 µM, first compound 0.000999 µM
[32] = second compound 10 µM, first compound 0.00316 µM
[33] = second compound 10 µM, first compound 0.00999 µM
[34] = second compound 10 µM, first compound 0.0316 µM
[35] = second compound 10 µM, first compound 0.0999 µM
[36] = second compound 10 µM, first compound 0.316 µM
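Also: spheroids exposed to compounds for one week before readout.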
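For viability, T/C in this document: percent viability relative to vehicle DMSO wells taken as 100%.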

For `CCc1c2c(nc3ccc(O)cc13)-c1cc3c(c(=O)n1C2)COC(=O)[C@]3(O)CC` + Cc1[nH]c2ccc(F)cc2c1-c1nc2c3cccnc3c3ncccc3c2[nH]1, the IC50 (second compound 0.0316 µM) was 8.64 nM, the IC50 (second compound 0.1 µM) was 5.42 nM and the IC50 (second compound 0.316 µM) was 9.75 nM. For the same compound, the IC50 (second compound 1 µM) was 8.5 nM, the IC50 (second compound 3.16 µM) was 9.46 nM and the IC50 (second compound 10 µM) was 8.53 nM. The viability, T/C [1] was 79.3%, the viability, T/C [2] was 63% and the viability, T/C [3] was 51.5%. The viability, T/C [4] was 24.8%, the viability, T/C [5] was 14.7% and the viability, T/C [6] was 12.2%. The viability, T/C [7] was 80.2%, the viability, T/C [8] was 54.5% and the viability, T/C [9] was 45.5%. The viability, T/C [10] was 26.5%, the viability, T/C [11] was 15.3% and the viability, T/C [12] was 11.1%. The viability, T/C [13] was 73.5%, the viability, T/C [14] was 72.6% and the viability, T/C [15] was 47.9%. It also gave a viability, T/C [16] of 25%, a viability, T/C [17] of 15.4% and a viability, T/C [18] of 11.4%. It also gave a viability, T/C [19] of 74.8%, a viability, T/C [20] of 63.2% and a viability, T/C [21] of 49.8%. The viability, T/C [22] was 24.4%, the viability, T/C [23] was 16.6% and the viability, T/C [24] was 14.7%. The viability, T/C [25] was 80.5%, the viability, T/C [26] was 60.1% and the viability, T/C [27] was 55.9%. It also gave a viability, T/C [28] of 27.4%, a viability, T/C [29] of 15.7% and a viability, T/C [30] of 13%. For the same compound, the viability, T/C [31] was 80.7%, the viability, T/C [32] was 54.5% and the viability, T/C [33] was 59.2%. It also gave a viability, T/C [34] of 28.1%, a viability, T/C [35] of 18.7% and a viability, T/C [36] of 14.6%.

With `CCc1c2c(nc3ccc(O)cc13)-c1cc3c(c(=O)n1C2)COC(=O)[C@]3(O)CC` + Cc1cnc(CNC(=O)c2c(=O)c3ccc(N4CCCN(C)CC4)nc3n3c2sc2ccccc23)cn1 the IC50 (second compound 0.0316 µM) was 3.53 nM, the IC50 (second compound 0.1 µM) was 3.89 nM and the IC50 (second compound 0.316 µM) was < 0.999 nM. The IC50 (second compound 1 µM) was < 0.999 nM, the IC50 (second compound 3.16 µM) was < 0.999 nM and the IC50 (second compound 10 µM) was < 0.999 nM. The viability, T/C [1] was 89%, the viability, T/C [2] was 43.6% and the viability, T/C [3] was 41.9%. It also gave a viability, T/C [4] of 16.5%, a viability, T/C [5] of 10.4% and a viability, T/C [6] of 8.23%. The viability, T/C [7] was 55.4%, the viability, T/C [8] was 55.9% and the viability, T/C [9] was 31.9%. For the same compound, the viability, T/C [10] was 11%, the viability, T/C [11] was 6.26% and the viability, T/C [12] was 3.59%. It also gave a viability, T/C [13] of 25.9%, a viability, T/C [14] of 17.3% and a viability, T/C [15] of 5.28%. For the same compound, the viability, T/C [16] was 2.97%, the viability, T/C [17] was 2.84% and the viability, T/C [18] was 0.55%. It also gave a viability, T/C [19] of 3.82%, a viability, T/C [20] of 3.55% and a viability, T/C [21] of 2.71%. The viability, T/C [22] was 1.95%, the viability, T/C [23] was 1.2% and the viability, T/C [24] was 0.14%. For the same compound, the viability, T/C [25] was 2.34%, the viability, T/C [26] was 1.9% and the viability, T/C [27] was 1.86%. The viability, T/C [28] was 0.77%, the viability, T/C [29] was 0.1% and the viability, T/C [30] was 0.13%. For the same compound, the viability, T/C [31] was 1.54%, the viability, T/C [32] was 0.97% and the viability, T/C [33] was 0.21%. For the same compound, the viability, T/C [34] was 0.17%, the viability, T/C [35] was 0.16% and the viability, T/C [36] was 0.19%.
